# pIC50: −log10 of the molar value. Read-outs that look alike come from different tables or passages of the source.
# Experiments:
# [1] = test system: collagen induced platelet aggregation in human platelet rich plasma; test: inhibition of platelet aggregation induced in vitro by collagen in human platelet rich plasma; format: cell-based; details: Table C, read-out: IC50 against collagen induced aggregation
# Excerpt: The compounds were examined for their ability to inhibit platelet aggregation induced in vitro by collagen in human platelet rich plasma.
# [2] = test system: bronchoconstriction induced by a histamine aerosol; test: protection of conscious guinea pigs against bronchoconstriction induced by a histamine aerosol (Herxheimer test); format: in vivo, guinea pig; details: Table B, compound by aerosol
# Excerpt: 2. The compounds were also examined for their ability to protect conscious guinea pigs against bronchoconstriction induced by a histamine aerosol (Herxheimer test). In these experiments the compounds were adminstered by aerosol.
# [3] = test system: 5-hydroxytryptamine induced bronchoconstriction; test: inhibition of 5-hydroxytryptamine induced bronchoconstriction in the anaesthetised, artificially respired guinea pig (Konzett-Rossler preparation); format: in vivo; details: for ED50: Cavia porcellus, iv
# Procedure: 1. The compounds were examined for their ability to inhibit 5-hydroxytryptamine induced bronchoconstriction in the anaesthetised, artificially respired guinea pig (Konzett-Rossler preparation) The compounds were administered intravenously.
# The test for bronchodilator activity used in `Bronchodilator activity` method 1 above was used with three test animals for the comparison testing of Compound 5 against the compound 5-(6-carboxyhexyl)-1-(3-hydroxy-4,4-dimethyloctyl)hydantoin (A) highlighted in German Offenlegungsschrift No. 2724948 for its anti-bronchoconstriction activity.
# [4] = test system: arrhythmia in electrostimulation of the right ventricle; test: anti-arrhythmic activity: increase of the voltage required to produce arrhythmia in electrostimulation of the right ventricle; format: in vivo, guinea pig; details: Table D; anaesthetised guinea pigs, 32.0 mg/kg I.d.; p<0.5 (so in the source)
# Excerpt: Compound 5 was examined for its ability to increase the voltage required to produce arrhythmia in electrostimulation of the right ventricle in anaesthatised guinea pigs.
# [5] = test system: indomethacin induced gastric damage; test: anti-ulcer activity: inhibition of indomethacin induced gastric damage in the rat; format: in vivo; details: 100 mg/kg orally
# Procedure: Anti-ulcer activity was assessed by the inhibition of indomethacin induced gastric damage in the rat according to the method of Eleghe (1974) Israeli J. Med. Sci. IO, 1451. Rats were starved overnight, given 15 mg/kg indomethacin subcutaneously and sacrificed 4 hours later. Stomachs were reflated with n.saline, cut along the greater curvature pinned out and scored for gastric damage by the following system.
# Score 1-3--according to degree of erythema and slight haemorrhage.
# Score 4-6--according to degree of mucosal erosion.
# Score 7-9--according to depth of gastric damage.
# Groups of 7 rats were used for each treatment and the test compound or vehicle were administered 30 minutes prior to giving the indomethacin. Dose of test compound was 100 mg/kg orally and control groups receiving vehicle only were set up simultaneously. Mean values for each treatment were obtained using the above scoring system and the Mann Witney test applied for significance of difference between the values obtained with the treatments.
# [6] = Table A, anaesthetised guinea pig, i.v., read-out: ED50 against 5-hydroxytryptamine induced bronchoconstriction
# [7] = Table E, comparison testing, three test animals, guinea pig, read-out: ED50 (mean)
SMILES,pIC50 [1],"Activity, Aerosol administration (Herxheimer test) [2]","ED50 [3, 6]","ED50 [3, 7]","bronchodilator potency of compound 5 relative to Compound A ([3]; comparison testing, Table E)",% increase of voltage ± SEM [4],"Mean Score ± S.E. of mean (gastric damage) ([5]; 30 minutes before 15 mg/kg indomethacin s.c., score 1-9, vehicle control 4.14±0.59, p<0.01)",anti-ulcer activity (in words) ([5]; compared with vehicle only treatment)
CCCCCCC(C)(O)CCN1C(=O)N(C)C(=O)C1CC=CCCCC(=O)O (stereo not drawn) [Compound 5],4.66,1 µg/mL,1.3 µg/kg,1.2 µg/kg,at least an order of magnitude more potent,43.0 ± 7.0%,,
"CCCCC(C)C(C)(O)CCN1C(=O)N(C)C(=O)C1CC=CCCCC(=O)O (stereo not drawn) [Compound 4, 1-(3'-hydroxy-3'-methyl-4'-methyl-n-octyl)-3-methyl-5(6""-carboxy-n-hex-2""- enyl)hydantoin]",4.55,0.5 µg/mL,0.6 µg/kg,,,,0.43±0.20,reduced the mean ulcer score and therefore has significant anti-ulcer activity
"CCCCC(C)(C)C(O)CCN1C(=O)NC(=O)C1CCCCCCC(=O)O (stereo not drawn) [Compound A, 5-(6-carboxyhexyl)-1-(3-hydroxy-4,4-dimethyloctyl)hydantoin, reference compound]",,,,24.6 µg/kg,,,,

# From patent publication US4298745A, “Hydantoin derivatives” (Beecham Group Limited, priority 1978, dated 1981)
